Source: patent US12583884B2, “3beta-(benzyloxy)-17alpha-methyl-pregn-5-en-20-one for use in the treatment of cognitive disorders” (AELIS FARMA, priority 2018, dated 2026)
Read-outs that look alike come from different tables or passages of the source.

Experiments:
Neurokinin NK1 = Neurokinin NK1 (Homo sapiens, UniProt P25103); experiment: CEREP binding profile: NK1
Source text: (§1) The CEREP High-throughput profile consists of a broad collection of 80 transmembrane and soluble receptors, ion channels and G-Protein coupled receptors.

Neurotensin NTS1 (NT1) = Neurotensin NTS1 (NT1) (Homo sapiens, UniProt P30989); experiment: CEREP binding profile: NTS1
Source text: as §1

Melatonin MT1 (ML1A) = Melatonin MT1 (ML1A) (Homo sapiens, UniProt P48039); experiment: CEREP binding profile: MT1
Source text: as §1

Dopamine D5 = target: T1, Dopamine D5 (Homo sapiens, UniProt P21918); experiment: CEREP binding profile: D5
T1 construct: CEREP
Source text: as §1

[1] = target: T2, Vasoactive intestinal peptide VPAC1 (VIP1) (Homo sapiens, UniProt P32241); experiment: CEREP binding profile: VPAC1
T2 construct: CEREP (contract panel)
Source text: as §1

[2] = system: primary culture of rat hepatocytes; experiment: Hepatotoxicity in primary culture of hepatocytes; assay type: cell-based; details: 0.1 to 100 μM; 48 hours
Experimental: The percentage of cytolysed hepatocytes over time was determined by time lapse imaging with a fluorescent cytolysis marker. The number of bile canaliculi after 48 hours of treatment was determined using a fluorescent bile salt analog.
Primary rat hepatocytes from 10-12 weeks old Wistar rats were isolated using a two-step collagenase perfusion method. After 24 hours, cells were covered with a layer of Matrigel to perform a sandwich configuration culture. […] Cells were then stained using a fluorescent bile salt analog to measure the bile canaliculi network state and the Bsep pump activity. Acetaminophen (30 mM) and Cyclosporin A (1 μM) were added as positive controls of hepatotoxicity and biliary canaliculi loss, respectively.

Cannabinoid CB2 = target: T3, Cannabinoid CB2 (Homo sapiens, UniProt P34972); experiment: Binding: CB2
T3 construct: CEREP
Source text: as §1

Ts65Dn mice = experiment: Working memory (radial maze), Down syndrome model; assay type: in vivo, mouse; details: 0.06 μg/ml in drinking water
Experimental: The working memory task was performed using 8-arm radial mazes described in Example 3a. Food restriction and habituation procedure were performed as described in Example 3a. The working memory procedure began 24 h after the last habituation session. Each mouse was submitted to 15 daily learning sessions (5 blocks of 3 days) made of 23 trials each. Six arms out of eight were used during the working memory test (3 pairs (A, B or C) of adjacent arms).
At the beginning of each daily session, the mouse was placed at the center of the maze with no access to the arms. The doors of the first pair of arms then opened giving access to both arms of the pair. Once the mouse had visited one of the arms and goes back to the central platform, the door closed, and the animal was confined in the central platform for 10 sec (inter-trial interval, ITI) before two doors opened again giving access to a pair of arms. Once the animal had visited one of the arms and returns to the central platform the doors close again for 10 sec before the next trial. Within each session, the mouse was submitted to repeated and successive presentations of the 3 pairs of arms one at a time. At the first presentation of each arm pair the food reward was present in both arms. […]

human CB1 receptor = human CB1 receptor (Homo sapiens, UniProt P21554); experiment: THC-induced decrease of cAMP in CHO-hCB1 cells; assay type: cell-based; details: 1 nM, 10 nM, 100 nM and 1 μM
Experimental: CHO-CB1-C2 cells were treated by concomitantly adding THC and the test compound for 45 minutes. Forskolin (2.5 μM) was also simultaneously added in all the conditions tested to sustain cAMP basal level.
At the end of the treatment, cells were lysed to proceed with the cAMP quantification. All measures were performed in triplicates in one experiment. The quantitative determination of cAMP was performed through a competitive fluorescence immunoassay. Data were expressed as % of Delta Fluorescence (Delta F) that was calculated as follows: Delta F %=(Sample Fluorescence−Negative control Fluorescence)/Negative control Fluorescence.

in vivo = details: Ts65Dn and WT, mouse
Source text: At the end of the behavioral study, mice were sacrificed, blood and brain samples were collected.

Serotonin 5-HT2B = target: T4, Serotonin 5-HT2B (Homo sapiens, UniProt P41595); experiment: CEREP binding profile: 5-HT2B
T4 construct: CEREP (contract panel)
Source text: as §1

Adenosine A2A = target: T5, Adenosine A2A (Homo sapiens, UniProt P29274); experiment: CEREP binding profile: A2A
T5 construct: CEREP
Source text: as §1

K+ channels KV = experiment: CEREP binding profile: KV; details: 10 μM
Source text: as §1

Sequence of Melatonin MT1 (ML1A) (P48039 whole entry): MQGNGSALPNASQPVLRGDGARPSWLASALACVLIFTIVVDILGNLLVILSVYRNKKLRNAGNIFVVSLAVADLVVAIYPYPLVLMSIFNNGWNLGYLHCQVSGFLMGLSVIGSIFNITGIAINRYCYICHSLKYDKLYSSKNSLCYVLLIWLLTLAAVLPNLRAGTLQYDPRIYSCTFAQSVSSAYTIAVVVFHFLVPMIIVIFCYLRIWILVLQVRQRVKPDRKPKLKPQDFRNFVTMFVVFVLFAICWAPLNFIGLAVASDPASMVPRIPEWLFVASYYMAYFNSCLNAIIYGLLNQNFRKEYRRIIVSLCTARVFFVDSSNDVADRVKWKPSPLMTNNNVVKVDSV
Sequence of Neurokinin NK1 (P25103 whole entry): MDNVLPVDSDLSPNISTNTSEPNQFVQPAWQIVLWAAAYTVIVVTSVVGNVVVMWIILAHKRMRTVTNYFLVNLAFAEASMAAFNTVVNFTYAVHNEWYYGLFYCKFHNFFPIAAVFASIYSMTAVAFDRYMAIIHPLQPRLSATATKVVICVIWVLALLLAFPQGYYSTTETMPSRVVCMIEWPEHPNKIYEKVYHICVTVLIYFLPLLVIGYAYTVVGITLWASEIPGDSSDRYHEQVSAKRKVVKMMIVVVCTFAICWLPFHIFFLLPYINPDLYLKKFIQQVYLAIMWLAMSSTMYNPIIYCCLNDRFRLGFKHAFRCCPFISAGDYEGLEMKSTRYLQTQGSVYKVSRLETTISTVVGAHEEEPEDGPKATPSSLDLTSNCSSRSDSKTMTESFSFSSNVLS
T5 sequence (P29274 whole entry): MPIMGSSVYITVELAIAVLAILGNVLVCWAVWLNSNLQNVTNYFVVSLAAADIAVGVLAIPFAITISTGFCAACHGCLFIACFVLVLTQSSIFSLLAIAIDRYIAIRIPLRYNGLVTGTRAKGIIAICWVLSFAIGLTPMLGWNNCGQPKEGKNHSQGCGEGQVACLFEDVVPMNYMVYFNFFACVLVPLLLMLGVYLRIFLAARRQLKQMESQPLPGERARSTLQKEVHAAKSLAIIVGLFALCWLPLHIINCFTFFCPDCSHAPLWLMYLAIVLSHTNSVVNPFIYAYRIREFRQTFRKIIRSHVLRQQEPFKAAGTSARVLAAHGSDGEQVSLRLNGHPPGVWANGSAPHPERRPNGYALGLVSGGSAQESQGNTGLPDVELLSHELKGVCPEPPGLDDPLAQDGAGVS
T3 sequence (P34972 whole entry): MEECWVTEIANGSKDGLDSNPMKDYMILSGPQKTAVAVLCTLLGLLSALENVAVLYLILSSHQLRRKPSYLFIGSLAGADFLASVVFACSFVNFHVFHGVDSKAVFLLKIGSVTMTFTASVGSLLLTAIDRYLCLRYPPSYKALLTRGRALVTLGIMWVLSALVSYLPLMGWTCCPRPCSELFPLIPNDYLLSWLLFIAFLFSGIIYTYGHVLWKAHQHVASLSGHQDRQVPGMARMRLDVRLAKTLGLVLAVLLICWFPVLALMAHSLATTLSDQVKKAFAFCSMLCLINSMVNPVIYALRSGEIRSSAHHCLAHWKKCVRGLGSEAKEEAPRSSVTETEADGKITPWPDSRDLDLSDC
T2 sequence (P32241 31-457): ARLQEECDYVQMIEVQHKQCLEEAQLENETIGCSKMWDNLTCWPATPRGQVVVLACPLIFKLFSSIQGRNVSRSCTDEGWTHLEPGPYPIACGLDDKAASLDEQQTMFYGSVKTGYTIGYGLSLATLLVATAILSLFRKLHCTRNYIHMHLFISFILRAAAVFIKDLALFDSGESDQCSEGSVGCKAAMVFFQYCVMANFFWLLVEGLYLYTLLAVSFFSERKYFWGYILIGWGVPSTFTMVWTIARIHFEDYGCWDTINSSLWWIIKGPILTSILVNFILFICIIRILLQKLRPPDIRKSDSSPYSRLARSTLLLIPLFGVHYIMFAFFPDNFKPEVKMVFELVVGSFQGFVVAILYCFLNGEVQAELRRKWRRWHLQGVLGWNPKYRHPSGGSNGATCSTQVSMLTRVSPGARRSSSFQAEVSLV
Sequence of Neurotensin NTS1 (NT1) (P30989 whole entry): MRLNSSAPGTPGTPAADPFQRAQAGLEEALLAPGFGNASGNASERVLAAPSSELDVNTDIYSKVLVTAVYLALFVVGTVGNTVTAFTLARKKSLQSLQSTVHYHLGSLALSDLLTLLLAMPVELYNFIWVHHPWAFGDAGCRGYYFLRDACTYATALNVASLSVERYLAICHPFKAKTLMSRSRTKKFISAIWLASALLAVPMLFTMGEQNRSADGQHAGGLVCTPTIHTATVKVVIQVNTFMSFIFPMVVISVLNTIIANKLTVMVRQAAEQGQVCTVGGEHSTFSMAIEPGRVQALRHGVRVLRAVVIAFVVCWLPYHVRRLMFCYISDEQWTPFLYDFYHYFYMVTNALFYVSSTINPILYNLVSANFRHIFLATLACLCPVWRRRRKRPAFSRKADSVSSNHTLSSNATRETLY
T4 sequence (P41595 whole entry): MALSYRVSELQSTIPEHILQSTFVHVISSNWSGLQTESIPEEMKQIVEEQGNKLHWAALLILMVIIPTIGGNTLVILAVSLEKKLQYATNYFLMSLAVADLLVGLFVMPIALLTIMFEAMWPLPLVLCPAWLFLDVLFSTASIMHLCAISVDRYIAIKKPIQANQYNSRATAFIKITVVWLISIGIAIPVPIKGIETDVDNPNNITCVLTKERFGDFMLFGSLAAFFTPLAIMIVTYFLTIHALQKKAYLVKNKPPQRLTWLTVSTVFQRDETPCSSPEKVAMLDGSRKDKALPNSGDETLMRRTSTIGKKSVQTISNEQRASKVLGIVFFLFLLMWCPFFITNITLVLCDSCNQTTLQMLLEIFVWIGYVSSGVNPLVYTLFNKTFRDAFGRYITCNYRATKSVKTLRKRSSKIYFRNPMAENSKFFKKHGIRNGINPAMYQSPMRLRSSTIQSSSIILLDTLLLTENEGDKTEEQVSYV
T1 sequence (P21918 whole entry): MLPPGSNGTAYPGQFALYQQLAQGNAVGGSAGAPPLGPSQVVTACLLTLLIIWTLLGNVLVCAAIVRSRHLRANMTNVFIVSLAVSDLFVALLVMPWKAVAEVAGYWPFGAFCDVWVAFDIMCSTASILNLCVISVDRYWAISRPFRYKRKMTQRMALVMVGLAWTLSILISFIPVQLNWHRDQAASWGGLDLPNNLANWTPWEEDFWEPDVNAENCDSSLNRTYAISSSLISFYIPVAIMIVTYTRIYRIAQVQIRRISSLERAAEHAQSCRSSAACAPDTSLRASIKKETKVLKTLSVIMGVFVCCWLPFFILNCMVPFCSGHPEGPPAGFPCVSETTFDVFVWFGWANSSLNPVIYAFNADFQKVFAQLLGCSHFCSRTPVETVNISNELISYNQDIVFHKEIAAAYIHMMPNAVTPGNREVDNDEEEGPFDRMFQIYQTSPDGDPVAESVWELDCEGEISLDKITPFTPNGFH
Sequence of human CB1 receptor (P21554 whole entry): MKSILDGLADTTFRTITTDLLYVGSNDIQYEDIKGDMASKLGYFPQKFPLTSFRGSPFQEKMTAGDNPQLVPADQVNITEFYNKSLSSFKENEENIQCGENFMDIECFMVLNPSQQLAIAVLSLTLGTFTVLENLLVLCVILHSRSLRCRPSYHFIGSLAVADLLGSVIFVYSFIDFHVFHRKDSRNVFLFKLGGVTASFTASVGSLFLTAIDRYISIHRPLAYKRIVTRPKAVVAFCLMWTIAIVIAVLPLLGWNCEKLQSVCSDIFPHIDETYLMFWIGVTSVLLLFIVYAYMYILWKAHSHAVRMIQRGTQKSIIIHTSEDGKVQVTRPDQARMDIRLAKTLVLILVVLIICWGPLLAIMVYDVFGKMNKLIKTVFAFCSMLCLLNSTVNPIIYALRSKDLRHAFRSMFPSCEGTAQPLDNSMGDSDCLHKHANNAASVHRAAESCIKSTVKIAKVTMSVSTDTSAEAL

| Compound | inhibition at 10 µM (Neurokinin NK1) [%] | inhibition at 10 µM (Neurotensin NTS1 (NT1)) [%] | inhibition at 10 µM (Melatonin MT1 (ML1A)) [%] | % Inhibition (Dopamine D5; 10 μM) [%] | inhibition at 10 µM [1] [%] | Hepatotoxic effect (hepatocyte survival) [2] | inhibition at 10 µM (Cannabinoid CB2) [%] | Correct responses (working memory) (Ts65Dn mice) | Effect on inhibition of cAMP induced by THC (human CB1 receptor) | concentration at 1 month (in vivo) [ng/mL] | % Inhibition (Serotonin 5-HT2B; 10 μM) [%] | inhibition at 10 µM (Adenosine A2A) [%] | % Inhibition (K+ channels KV) [%] | inhibition at 10 µM (Dopamine D5) [%] | inhibition at 10 µM (Cannabinoid CB2; CB2, 10 μM, read-out: % Inhibition) [%] | inhibition at 10 µM (Serotonin 5-HT2B) [%] |
| --- | --- | --- | --- | --- | --- | --- | --- | --- | --- | --- | --- | --- | --- | --- | --- | --- |
| CC(=O)[C@@]1(C)CC[C@H]2[C@@H]3CC=C4C[C@@H](OCc5ccccc5)CC[C@]4(C)[C@H]3CC[C@@]21C [3Bn17MeP, 3β-benzyloxy, 17α-methyl-pregn-5-en-20-one] | 8 | -13 | -8 | −6 | -17 | no hepatotoxic effect | 2 | increased correct responses in Ts65Dn as compared to vehicle mice that reached the level of WT | does not modify | 1.3 | 16 | -6 | −15 |  |  |  |
| CC(=O)[C@H]1CC[C@H]2[C@@H]3CC=C4C[C@@H](O)CC[C@]4(C)[C@H]3CC[C@]12C [pregnenolone, reference compound] | 17 | -19 | 26 |  | -10 |  |  |  |  |  |  | -1 | −23 | -4 | -19 | -38 |
